Data as given in article PMC7613998, “Development of selective inhibitors of phosphatidylinositol 3-kinase C2α” (Nature Chemical Biology, 2022).

What was measured:
Experiment in all cases: biochemical
Design in all cases: SelectScreen Z'-LYTE purified kinase panel, per cent inhibition, mean of two points
Conditions in all cases: (μM)=Km app
AKT1 (PKB alpha) = AKT1 (PKB alpha) (Homo sapiens, UniProt P31749)
AXL = target: T1, AXL (Homo sapiens, UniProt P30530)
T1 sequence (P30530 1-894): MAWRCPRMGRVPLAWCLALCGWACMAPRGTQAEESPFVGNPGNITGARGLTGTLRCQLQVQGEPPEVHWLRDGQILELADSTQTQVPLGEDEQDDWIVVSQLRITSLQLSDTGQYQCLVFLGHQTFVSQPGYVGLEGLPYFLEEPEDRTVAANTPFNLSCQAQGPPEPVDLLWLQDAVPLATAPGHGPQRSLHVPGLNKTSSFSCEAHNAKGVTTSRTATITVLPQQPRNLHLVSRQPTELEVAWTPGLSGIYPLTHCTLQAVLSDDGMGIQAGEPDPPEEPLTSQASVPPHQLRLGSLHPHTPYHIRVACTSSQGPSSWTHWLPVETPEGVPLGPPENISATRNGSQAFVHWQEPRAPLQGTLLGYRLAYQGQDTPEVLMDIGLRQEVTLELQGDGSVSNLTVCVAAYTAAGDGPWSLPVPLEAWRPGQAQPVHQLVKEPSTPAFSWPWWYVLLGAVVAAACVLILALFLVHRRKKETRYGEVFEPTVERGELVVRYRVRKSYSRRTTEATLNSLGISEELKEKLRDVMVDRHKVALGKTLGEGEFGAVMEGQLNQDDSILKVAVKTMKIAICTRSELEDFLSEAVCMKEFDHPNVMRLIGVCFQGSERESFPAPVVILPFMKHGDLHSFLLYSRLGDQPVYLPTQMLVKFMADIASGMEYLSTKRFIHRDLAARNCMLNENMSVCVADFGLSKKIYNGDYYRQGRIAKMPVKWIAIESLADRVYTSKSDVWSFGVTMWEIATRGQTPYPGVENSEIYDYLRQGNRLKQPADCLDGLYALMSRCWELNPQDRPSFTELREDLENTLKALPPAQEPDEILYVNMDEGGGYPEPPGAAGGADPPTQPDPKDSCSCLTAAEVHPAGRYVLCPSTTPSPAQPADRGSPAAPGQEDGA

BTK = BTK (Homo sapiens, UniProt Q06187)
Sequence of BTK (Q06187 whole entry): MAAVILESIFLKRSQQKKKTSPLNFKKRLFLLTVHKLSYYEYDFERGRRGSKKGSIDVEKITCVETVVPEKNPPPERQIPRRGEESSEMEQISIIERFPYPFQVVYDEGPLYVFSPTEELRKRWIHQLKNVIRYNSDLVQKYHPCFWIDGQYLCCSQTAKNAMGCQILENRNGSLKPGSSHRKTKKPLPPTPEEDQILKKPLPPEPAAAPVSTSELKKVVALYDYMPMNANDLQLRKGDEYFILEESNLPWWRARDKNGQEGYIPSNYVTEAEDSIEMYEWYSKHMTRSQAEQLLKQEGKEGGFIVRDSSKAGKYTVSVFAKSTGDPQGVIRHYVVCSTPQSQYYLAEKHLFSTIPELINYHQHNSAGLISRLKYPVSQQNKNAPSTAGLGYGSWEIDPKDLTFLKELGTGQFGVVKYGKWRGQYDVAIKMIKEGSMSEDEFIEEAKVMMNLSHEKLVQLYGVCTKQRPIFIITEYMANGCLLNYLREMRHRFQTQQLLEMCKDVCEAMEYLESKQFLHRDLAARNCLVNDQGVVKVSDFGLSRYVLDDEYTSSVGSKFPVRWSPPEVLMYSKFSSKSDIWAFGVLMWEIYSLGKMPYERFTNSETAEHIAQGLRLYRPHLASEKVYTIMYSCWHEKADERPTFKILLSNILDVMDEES

CSNK1D (CK1 delta) = CSNK1D (CK1 delta) (Homo sapiens, UniProt P48730)
CSNK1G2 (CK1 gamma 2) = CSNK1G2 (CK1 gamma 2) (Homo sapiens, UniProt P78368)
ERBB2 (HER2) = ERBB2 (HER2) (Homo sapiens, UniProt P04626)
INSR = INSR (Homo sapiens, UniProt P06213)
PAK1 = PAK1 (Homo sapiens, UniProt Q13153)
Sequence of PAK1 (Q13153 whole entry): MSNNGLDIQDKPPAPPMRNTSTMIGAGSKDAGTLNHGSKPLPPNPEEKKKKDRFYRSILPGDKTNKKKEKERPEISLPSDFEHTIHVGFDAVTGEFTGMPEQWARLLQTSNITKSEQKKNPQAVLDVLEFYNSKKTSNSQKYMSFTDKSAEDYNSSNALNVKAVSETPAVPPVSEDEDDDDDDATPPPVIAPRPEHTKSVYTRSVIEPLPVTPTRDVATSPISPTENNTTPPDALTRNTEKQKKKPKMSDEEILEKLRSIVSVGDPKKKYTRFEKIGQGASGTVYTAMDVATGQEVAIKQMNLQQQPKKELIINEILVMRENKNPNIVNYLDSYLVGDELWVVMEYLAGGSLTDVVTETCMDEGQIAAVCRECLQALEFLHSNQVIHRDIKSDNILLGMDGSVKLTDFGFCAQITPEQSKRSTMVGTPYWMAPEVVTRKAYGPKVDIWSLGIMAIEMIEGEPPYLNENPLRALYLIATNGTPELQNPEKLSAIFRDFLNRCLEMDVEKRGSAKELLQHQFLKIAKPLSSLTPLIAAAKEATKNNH

PDGFRB (PDGFR beta) = PDGFRB (PDGFR beta) (Homo sapiens, UniProt P09619)
Sequence of PDGFRB (PDGFR beta) (P09619 whole entry): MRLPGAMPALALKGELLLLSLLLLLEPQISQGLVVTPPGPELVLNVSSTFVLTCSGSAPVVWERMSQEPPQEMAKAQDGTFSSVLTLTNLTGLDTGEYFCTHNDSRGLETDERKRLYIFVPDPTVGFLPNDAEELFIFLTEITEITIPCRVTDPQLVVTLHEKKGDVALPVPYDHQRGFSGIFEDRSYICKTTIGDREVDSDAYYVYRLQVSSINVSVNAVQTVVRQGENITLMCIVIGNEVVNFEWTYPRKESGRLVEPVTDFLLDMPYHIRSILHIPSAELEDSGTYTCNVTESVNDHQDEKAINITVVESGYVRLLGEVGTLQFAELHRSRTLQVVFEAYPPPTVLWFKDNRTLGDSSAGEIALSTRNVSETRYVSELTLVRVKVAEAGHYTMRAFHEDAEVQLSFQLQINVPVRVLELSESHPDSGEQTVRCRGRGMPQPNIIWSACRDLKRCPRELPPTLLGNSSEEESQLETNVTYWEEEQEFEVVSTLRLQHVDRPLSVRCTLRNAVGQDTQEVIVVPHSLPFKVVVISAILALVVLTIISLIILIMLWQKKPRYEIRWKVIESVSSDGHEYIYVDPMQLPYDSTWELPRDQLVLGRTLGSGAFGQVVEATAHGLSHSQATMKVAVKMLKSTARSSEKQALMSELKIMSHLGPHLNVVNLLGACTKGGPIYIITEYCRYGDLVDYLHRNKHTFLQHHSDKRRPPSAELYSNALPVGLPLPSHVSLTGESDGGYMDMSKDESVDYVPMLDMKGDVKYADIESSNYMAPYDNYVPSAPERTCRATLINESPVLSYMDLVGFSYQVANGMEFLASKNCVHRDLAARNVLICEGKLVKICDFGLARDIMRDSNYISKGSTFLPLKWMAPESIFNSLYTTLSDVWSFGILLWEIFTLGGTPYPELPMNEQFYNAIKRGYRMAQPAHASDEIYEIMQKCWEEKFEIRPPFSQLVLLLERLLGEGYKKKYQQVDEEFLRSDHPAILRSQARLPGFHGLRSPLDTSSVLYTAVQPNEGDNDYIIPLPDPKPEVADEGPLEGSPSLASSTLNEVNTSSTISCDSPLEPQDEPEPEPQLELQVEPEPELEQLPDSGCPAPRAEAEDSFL

RET = RET (Homo sapiens, UniProt P07949)
Sequence of RET (P07949 whole entry): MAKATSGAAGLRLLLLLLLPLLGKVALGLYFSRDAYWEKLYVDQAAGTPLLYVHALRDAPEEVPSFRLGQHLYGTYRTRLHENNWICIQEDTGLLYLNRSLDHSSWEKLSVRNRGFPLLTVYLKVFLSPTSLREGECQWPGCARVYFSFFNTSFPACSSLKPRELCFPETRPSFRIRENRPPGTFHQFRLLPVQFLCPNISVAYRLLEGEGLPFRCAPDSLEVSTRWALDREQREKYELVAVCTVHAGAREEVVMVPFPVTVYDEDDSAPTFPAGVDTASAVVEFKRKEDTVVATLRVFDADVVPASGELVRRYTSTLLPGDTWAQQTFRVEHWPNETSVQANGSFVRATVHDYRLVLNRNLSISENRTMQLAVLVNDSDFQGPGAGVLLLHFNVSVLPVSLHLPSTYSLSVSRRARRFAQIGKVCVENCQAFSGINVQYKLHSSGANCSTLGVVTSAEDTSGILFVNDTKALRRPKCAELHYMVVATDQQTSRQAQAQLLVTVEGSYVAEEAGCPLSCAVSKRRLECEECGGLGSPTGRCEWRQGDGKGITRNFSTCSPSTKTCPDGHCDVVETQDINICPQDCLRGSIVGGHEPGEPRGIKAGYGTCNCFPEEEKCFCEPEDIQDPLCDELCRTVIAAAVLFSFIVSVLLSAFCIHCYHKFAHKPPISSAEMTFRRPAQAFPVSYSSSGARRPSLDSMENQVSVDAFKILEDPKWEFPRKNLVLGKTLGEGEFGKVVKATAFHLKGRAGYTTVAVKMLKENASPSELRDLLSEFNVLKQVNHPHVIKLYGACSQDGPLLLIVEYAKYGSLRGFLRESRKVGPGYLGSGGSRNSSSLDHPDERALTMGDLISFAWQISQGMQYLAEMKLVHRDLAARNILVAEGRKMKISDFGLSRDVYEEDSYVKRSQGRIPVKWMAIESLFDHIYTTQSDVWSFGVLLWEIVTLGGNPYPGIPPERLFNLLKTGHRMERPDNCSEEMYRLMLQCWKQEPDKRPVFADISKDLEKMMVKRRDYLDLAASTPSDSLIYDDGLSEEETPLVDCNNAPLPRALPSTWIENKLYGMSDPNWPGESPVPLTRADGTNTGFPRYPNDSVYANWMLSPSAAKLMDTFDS

SYK = SYK (Homo sapiens, UniProt P43405)
TYK2 = TYK2 (Homo sapiens, UniProt P29597)
Sequence of TYK2 (P29597 whole entry): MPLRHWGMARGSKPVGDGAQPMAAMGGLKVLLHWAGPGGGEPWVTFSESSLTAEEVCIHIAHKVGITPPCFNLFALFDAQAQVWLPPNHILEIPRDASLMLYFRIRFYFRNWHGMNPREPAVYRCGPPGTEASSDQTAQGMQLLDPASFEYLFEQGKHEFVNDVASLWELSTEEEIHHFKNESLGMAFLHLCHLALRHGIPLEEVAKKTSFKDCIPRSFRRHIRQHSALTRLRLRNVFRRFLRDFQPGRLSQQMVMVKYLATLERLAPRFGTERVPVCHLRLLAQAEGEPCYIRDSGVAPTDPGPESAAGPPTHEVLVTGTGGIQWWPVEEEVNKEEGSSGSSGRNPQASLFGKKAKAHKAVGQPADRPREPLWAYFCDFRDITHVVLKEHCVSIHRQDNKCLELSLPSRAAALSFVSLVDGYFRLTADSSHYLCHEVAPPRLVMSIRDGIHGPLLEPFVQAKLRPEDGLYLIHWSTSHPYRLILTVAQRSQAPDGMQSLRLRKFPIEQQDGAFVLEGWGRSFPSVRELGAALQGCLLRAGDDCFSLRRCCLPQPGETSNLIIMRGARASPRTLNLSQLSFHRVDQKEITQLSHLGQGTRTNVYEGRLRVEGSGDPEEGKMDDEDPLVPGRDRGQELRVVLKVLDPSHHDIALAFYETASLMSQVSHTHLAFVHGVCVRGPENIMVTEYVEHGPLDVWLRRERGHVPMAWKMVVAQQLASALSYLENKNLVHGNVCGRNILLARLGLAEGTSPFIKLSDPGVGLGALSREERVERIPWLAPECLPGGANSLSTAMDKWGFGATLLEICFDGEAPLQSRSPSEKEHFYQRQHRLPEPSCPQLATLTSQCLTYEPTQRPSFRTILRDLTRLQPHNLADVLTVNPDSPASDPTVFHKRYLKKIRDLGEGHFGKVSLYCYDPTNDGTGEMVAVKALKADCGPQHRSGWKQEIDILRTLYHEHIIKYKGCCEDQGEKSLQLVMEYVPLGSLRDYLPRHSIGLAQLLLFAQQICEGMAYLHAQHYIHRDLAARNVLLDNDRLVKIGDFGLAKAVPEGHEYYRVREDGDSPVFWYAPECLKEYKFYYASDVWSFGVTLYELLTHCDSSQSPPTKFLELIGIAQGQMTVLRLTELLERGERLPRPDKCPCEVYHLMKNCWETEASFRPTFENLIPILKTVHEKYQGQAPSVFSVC

Sequence of AKT1 (PKB alpha) (P31749 whole entry): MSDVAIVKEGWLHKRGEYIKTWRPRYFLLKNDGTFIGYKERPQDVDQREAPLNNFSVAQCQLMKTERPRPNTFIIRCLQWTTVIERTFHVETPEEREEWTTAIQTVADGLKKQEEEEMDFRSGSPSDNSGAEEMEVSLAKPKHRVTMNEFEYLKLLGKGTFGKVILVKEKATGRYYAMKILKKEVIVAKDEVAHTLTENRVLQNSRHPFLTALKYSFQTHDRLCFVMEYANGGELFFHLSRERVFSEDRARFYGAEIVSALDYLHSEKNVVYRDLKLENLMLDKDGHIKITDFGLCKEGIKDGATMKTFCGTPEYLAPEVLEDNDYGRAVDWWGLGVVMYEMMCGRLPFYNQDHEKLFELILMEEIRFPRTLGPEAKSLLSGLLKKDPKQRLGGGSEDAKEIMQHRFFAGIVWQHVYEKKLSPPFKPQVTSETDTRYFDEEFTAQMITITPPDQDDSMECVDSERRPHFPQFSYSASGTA

SMILES	inhibition at 1 µM (AKT1 (PKB alpha)) [%]	inhibition at 3 µM (AKT1 (PKB alpha)) [%]	inhibition at 10 µM (AKT1 (PKB alpha)) [%]	inhibition at 1 µM (AXL) [%]	inhibition at 3 µM (AXL) [%]	inhibition at 10 µM (AXL) [%]	inhibition at 1 µM (BTK) [%]	inhibition at 3 µM (BTK) [%]	inhibition at 10 µM (BTK) [%]	inhibition at 1 µM (CSNK1D (CK1 delta)) [%]	inhibition at 3 µM (CSNK1D (CK1 delta)) [%]	inhibition at 10 µM (CSNK1D (CK1 delta)) [%]	inhibition at 1 µM (CSNK1G2 (CK1 gamma 2)) [%]	inhibition at 3 µM (CSNK1G2 (CK1 gamma 2)) [%]	inhibition at 10 µM (CSNK1G2 (CK1 gamma 2)) [%]	inhibition at 1 µM (ERBB2 (HER2)) [%]	inhibition at 3 µM (ERBB2 (HER2)) [%]	inhibition at 10 µM (ERBB2 (HER2)) [%]	inhibition at 1 µM (INSR) [%]	inhibition at 3 µM (INSR) [%]	other results
O=C(CSc1nc2nccnc2c(=O)n1CCc1ccccc1)Nc1nccs1 [compound 1, PITCOIN1]	1.93	0.317	0.625	-3.88	-5.8	-2.92	6.72	3.08	2.73	4.82	3.36	10	0.334	6.89	8.12	-9.9	-2.96	-11.6	3.42	3.95	inhibition at 10 µM (INSR): 0.721%; inhibition at 1 µM (PAK1): -5.17%; inhibition at 3 µM (PAK1): -2.58%; inhibition at 10 µM (PAK1): -1.88%; inhibition at 1 µM (PDGFRB (PDGFR beta)): -2.01%; inhibition at 3 µM (PDGFRB (PDGFR beta)): -3.23%; inhibition at 10 µM (PDGFRB (PDGFR beta)): 6.51%; inhibition at 1 µM (RET): 4.11%; inhibition at 3 µM (RET): 3.69%; inhibition at 10 µM (RET): 4.56%; inhibition at 1 µM (SYK): 2.84%; inhibition at 3 µM (SYK): 2.83%; inhibition at 10 µM (SYK): -0.59%; inhibition at 1 µM (TYK2): -4.9%; inhibition at 3 µM (TYK2): -7.09%; inhibition at 10 µM (TYK2): -1.29%
CS(=O)(=O)Nc1cccc(-c2csc(NC(=O)CSc3nc4nccnc4c(=O)n3CCc3ccccc3)n2)c1 [compound 3, PITCOIN3]	-1.18	7.49	3.66	-4.95	-1.87	-3.45	3.1	6.59	3.91	5.88	7.07	7.02	7.85	15.6	13.7	-1.62	-3.07	-10.7	3.69	4.01	inhibition at 10 µM (INSR): 4.66%; inhibition at 1 µM (PAK1): 21.4%; inhibition at 3 µM (PAK1): -0.318%; inhibition at 10 µM (PAK1): 19.2%; inhibition at 1 µM (PDGFRB (PDGFR beta)): 4.69%; inhibition at 3 µM (PDGFRB (PDGFR beta)): -3.18%; inhibition at 10 µM (PDGFRB (PDGFR beta)): 1.91%; inhibition at 1 µM (RET): 7.87%; inhibition at 3 µM (RET): 5.35%; inhibition at 10 µM (RET): 5%; inhibition at 1 µM (SYK): 0.0373%; inhibition at 3 µM (SYK): 3.51%; inhibition at 10 µM (SYK): 6.6%; inhibition at 1 µM (TYK2): 3.78%; inhibition at 3 µM (TYK2): -2.18%; inhibition at 10 µM (TYK2): 4.5%
